Experimental data taken from patent US20210275506A1, “COMPOSITIONS AND METHODS OF TREATMENT” (Blueberry Therapeutics Limited, priority 2018, published 2021).
Like-named read-outs stand apart in the source and are kept apart here.

Legend:
[1] = tested on: IL-8; assay: Inflammation assay: IL-8 release of LPS-stimulated THP-1 cells; assay type: cell-based, human; conditions: for IL-8 release, in words: 30 ug/ml API, 100 ug/ml Nanocin; for IL-8 release, in words / MIC for inhibiting the LPS inflammatory response (IL-8): 24 h; for potency at inhibiting the LPS inflammatory response, in words / MIC for inhibiting the LPS inflammatory response (IL-8): dose range 0-30 ug/ml
[2] = Solubility of the APIs in ethanol and water vehicles; assay type: physicochemical; conditions: for Solubility in words: water and ethanol; for solubility: water and ethanol vehicles, read-out: Solubility, 10 mg/ml API solution
[3] = DLS particle size (z-average) and polydispersity index of API:Nanocin formulations; assay type: physicochemical; set-up: z-average: unit not given here
[4] = In vitro permeation, Franz cell, ToF-SIMS of cross sections and tape strips; assay type: in vitro ADME, pig; conditions: for permeation, key findings: all methods
[5] = tested on: P. acnes; assay: Bacterial lawn assay with soaked filter discs; assay type: cell-based, Pseudomonas acnes; conditions: Nanocin 1 mg/ml, Diclofenac 0.1-1 mg/ml
Experimental: The API's formulated with Nanocin were tested on 2 bacterial strains associated with acne. Staphylococcus epidermidis (S. epidermidis) and the anaerobic Pseudomonas acnes (P. acnes). Two types of assay were performed: (i) a bacterial lawn assay where the formulation was pipetted onto a Whatman filter disc and then added to a dried lawn of the bacteria growing on agar; and also, (ii) a liquid minimum inhibitory concentration (MIC) assay, where the bacteria were grown in 96 well plates. The bacterial lawn assay was much faster and easier to grow with the S. epidermidis as it was under aerobic conditions. The P. acnes growth on the agar plates was slower and difficult to capture on a camera (although possible to view by eye; see FIGS. 5c and 5d).

[6] = tested on: S. epidermidis; assay: Liquid MIC assay in 96 well plates; assay type: cell-based, Staphylococcus epidermidis; conditions: Diclofenac 50-500 ug/ml
Experimental: (§1) The API's formulated with Nanocin were tested on 2 bacterial strains associated with acne. Staphylococcus epidermidis (S. epidermidis) and the anaerobic Pseudomonas acnes (P. acnes). Two types of assay were performed: (i) a bacterial lawn assay where the formulation was pipetted onto a Whatman filter disc and then added to a dried lawn of the bacteria growing on agar; and also, (ii) a liquid minimum inhibitory concentration (MIC) assay, where the bacteria were grown in 96 well plates.
(§2) However, results from both were reliable.

[7] = tested on: P. acnes; assay: Liquid MIC assay in 96 well plates; assay type: cell-based, Pseudomonas acnes; conditions: Diclofenac 50-500 ug/ml
Experimental: as §1, §2

[8] = tested on: TNF-α; assay: Inflammation assay: TNF-α release of LPS-stimulated THP-1 cells; assay type: cell-based, human; conditions: final concentration 1 or 0.1 ug/ml
Experimental: The release of cytokines (looking particularly at those associated with acne inflammation-TNF-α, IL-8, IL-1α) after stimulation with lipopolysaccharide (LPS) is a valid model system to test compounds for potential anti-inflammatory effects (Reference 1)
To standardise conditions for the assay, a LPS dose (0-1 ug/ml) was investigated on TNF-α, IL-8 and IL-1α response, over a time period from 2,4 and 24 hours.
A 1:1 mg/ml (Nanocin:API) was initially formulated in 20% ethanol and the stock formulation was then diluted down with serum free media and tested at a final concentration of 1 or 0.1 ug/ml.

[9] = aqueous with cosolvent or surfactant or cyclodextrin, 5% ethanol
[10] = aqueous with cosolvent or surfactant or cyclodextrin, 15% ethanol
[11] = aqueous with cosolvent or surfactant or cyclodextrin, 20% ethanol
[12] = aqueous with cosolvent or surfactant or cyclodextrin, 30% ethanol
[13] = aqueous with cosolvent or surfactant or cyclodextrin, 10% ethanol

Solubility in words [2]	SMILES	IL-8 release, in words [1]	PDI ([3]; 0.33:1 mg/ml API:N)	z-average ([3]; 0.33:1 mg/ml API:N)	PDI ([3]; 1:1 mg/ml API:N)	z-average ([3]; 1:1 mg/ml API:N)	permeation, key findings [4]	potency at inhibiting the LPS inflammatory response, in words [1]	MIC for inhibiting the LPS inflammatory response (IL-8) [1]	solubility [2, 9]	solubility [2, 10]	solubility [2, 11]	solubility [2, 12]	solubility ([2]; water)	solubility [2, 13]	further results
better solubility in water and ethanol	CC(C)Cc1ccc(C(C)C(=O)O)cc1 (centres unmarked) [Ibuprofen]	very little effect on reducing the IL-8 release	0.289	194.1	0.34	311.9	no evidence	–	–	–	–	–	–	–	–	–
–	C=CC[C@@H]1/C=C(\C)C[C@H](C)C[C@H](OC)[C@H]2O[C@@](O)(C(=O)C(=O)N3CCCC[C@H]3C(=O)O[C@H](/C(C)=C/[C@@H]3CC[C@@H](O)[C@H](OC)C3)[C@H](C)[C@@H](O)CC1=O)[C@H](C)C[C@@H]2OC [Tacrolimus]	more effective anti-inflammatory	0.332	41.54	1	277.1	no evidence	more potent than Ibuprofen	0.3 µg/mL	< 10000 µg/mL	> 10000 µg/mL	> 10000 µg/mL	> 10000 µg/mL	< 10000 µg/mL	–	Solubility, 10 mg/ml API solution ([2]; 10% ethanol): x(better)
–	CO[C@H]1C[C@@H]2CC[C@@H](C)[C@@](O)(O2)C(=O)C(=O)N2CCCC[C@H]2C(=O)O[C@H]([C@H](C)C[C@@H]2CC[C@@H](O)[C@H](OC)C2)CC(=O)[C@H](C)/C=C(\C)[C@@H](O)[C@@H](OC)C(=O)[C@H](C)C[C@H](C)/C=C/C=C/C=C/1C [Rapamycin]	–	–	–	–	–	no evidence	–	1 µg/mL	< 10000 µg/mL	< 10000 µg/mL	< 10000 µg/mL	> 10000 µg/mL	< 10000 µg/mL	< 10000 µg/mL	–
insolubility	Cc1ccc(-c2cc(C(F)(F)F)nn2-c2ccc(S(N)(=O)=O)cc2)cc1 [Celecoxib]	–	–	–	–	–	–	–	–	< 10000 µg/mL	< 10000 µg/mL	< 10000 µg/mL	< 10000 µg/mL	< 10000 µg/mL	< 10000 µg/mL	–

SMILES	Solubility in words [2]	IL-8 release, in words [1]	PDI ([3]; 0.33:1 mg/ml API:N)	z-average ([3]; 0.33:1 mg/ml API:N)	PDI ([3]; 1:1 mg/ml API:N)	z-average ([3]; 1:1 mg/ml API:N)	permeation, key findings [4]	potency at inhibiting the LPS inflammatory response, in words [1]	MIC for inhibiting the LPS inflammatory response (IL-8) [1]	solubility [2, 9]	solubility [2, 10]	solubility [2, 11]	solubility [2, 12]	solubility ([2]; water)	solubility [2, 13]	further results
O=C(O)Cc1ccccc1Nc1c(Cl)cccc1Cl [Diclofenac]	most soluble	–	0.251	–	0.817	–	–	more potent than Ibuprofen	1 µg/mL	–	> 10000 µg/mL	> 10000 µg/mL	> 10000 µg/mL	> 10000 µg/mL	> 10000 µg/mL	inhibition of bacterial growth (halo around disc) [5]: not seen; LPS-stimulated IL-8 response, in words ([1]; final concentration 1 or 0.1 ug/ml): reduced the LPS-stimulated inflammatory response; bacterial growth inhibition by API alone [6]: did not exhibit any bacterial growth inhibition; bacterial growth inhibition / anti-bacterial activity of API alone [7]: did not exhibit any bacterial growth inhibition; intensity of diclofenac salt ion markers in stratum corneum ([4]; ToF-SIMS cross sections, 1 mg/ml Diclofenac): slight elevation; diclofenac salt ion markers in tape strips 1-3 (permeation into top layers of stratum corneum) ([4]; ToF-SIMS tape strips, 1 mg/ml Diclofenac): does not and none; LPS-stimulated TNF-α response, in words [8]: reduced the LPS-stimulated inflammatory response
